Experimental data from patent US20140037625A1, “BIOMARKERS AND METHODS OF TREATMENT” (GENENTECH, INC., priority 2010, published 2014).
Where two headings read alike, the source gives them in different places.

Key:
NSCLC patients = settings: cited from earlier work
[1] = system: patients with advanced NSCLC; assay: Exploratory biomarker analyses from OAM4558g (MET FISH, mRNA by qRT-PCR) with outcome; type: in vivo, human
Description: MET and EGFR gene copy numbers were evaluated by fluorescent in situ hybridization (FISH). […] True MET amplification was defined as tight gene cluster of greater than or equal to 15 copies of MET in greater than or equal to 10% of tumor cells or a MET/CEP7 ratio of greater than or equal to 2.
MET, HGF, EGFR, AREG, and EREG mRNA expression was evaluated on RNA extracted from macro-dissected tumor tissue slides using the Fluidigm platform. Transcript levels were normalized to the mean of two reference genes that are stably expressed in lung tissue and results are expressed as normalized expression values (2^−ΔCt).
Exploratory tumor biomarkers related to c-Met and/or EGFR signaling were measured by FISH, qRT-PCR or various mutation detection techniques from archival tumor tissue specimens. Plasma HGF levels were measured by ELISA. Analyses with outcome were carried out independent of Met clinical diagnostic status.

[2] = system: patients with second and third-line NSCLC; settings: in vivo
Source text: (§1) This study was a Phase II, double-blind, randomized, multicenter trial designed to evaluate the preliminary activity and safety of treatment with MetMAb plus Erlotinib versus Erlotinib plus placebo in second and third-line NSCLC. […] Once 120 patients, comprising the “overall” population were enrolled, eligibility was restricted to patients with squamous cell carcinoma (SCC) histology to ensure that a total of approximately 80 patients with SCC are enrolled in the study. Randomization for the first 120 patients comprising the “overall” population was stratified by smoking status (non-smokers and smokers who have quit more than 10 years ago versus current smokers and smokers who have quit less than 10 years ago), performance status and histology, and randomization for the next 50 SCC patients will be stratified by smoking status and performance status. Treatment in each arm was continued until progression of disease, unacceptable toxicity, or any other discontinuation criterion was met. Upon disease progression, patients randomized to the Erlotinib plus placebo arm were given the option to receive MetMAb (in addition to continuing Erlotinib), provided they continue to meet eligibility criteria. Safety data collected from this cross-over was summarized for hypothesis generating purposes.
(§2) Primary and secondary efficacy analyses included all randomized patients, with patients allocated to the treatment arm to which they were randomized. Safety analyses included all randomized patients who received at least one dose of study treatment, with patients allocated to the treatment arm associated with the regimen actually received. Demographic and baseline characteristics (e.g. age and sex) were summarized using means, standard deviations, medians, and ranges for continuous variables and proportions for categorical variables, as appropriate. Summaries were presented by overall patient population and by treatment arm. The baselines value of any variable were defined as the last available value prior to the first administration of study treatment.
(§3) The dose of MetMAb was 15 mg/kg intravenously on Day 1 of a 3-week cycle. The weight at screening was used to determine the actual dose of MetMAb. The dose of erlotinib was 150 mg by mouth each day of a 3-week cycle. Dosage level for erlotinib may have been reduced to 100 mg (first reduction) or 50 mg (second reduction) for toxicity likely attributable to erlotinib (e.g., rash, diarrhea).

[3] = system: patients with second and third-line NSCLC; settings: for Difference in ORR, % (95% CI): Erlotinib + MetMAb vs Erlotinib + Placebo
Source text: The original protocol for this study was described, e.g., in WO2010/045345; however, the study was later modified to add enrollment of 50 patients with squamous cell histology as follows. […] During this study, patients and treating individuals, including the investigators, were blinded to the treatment assignment of study drug (MetMAb or placebo).
During the study, data on tumor measurement and survival status were collected for evaluation of PFS, overall survival (OS) and overall response rate (ORR). CT scans were obtained at baseline and for the first four cycles at an approximately every 6 week intervals (i.e., every two three-week cycles of MetMAb/placebo). After four cycles, routine CT scans were performed approximately every 9 weeks (every 3 cycles of MetMAb/placebo). FDG-PET imaging is obtained at baseline and at Day 10-14 of Cycle 1. During the course of this study, an Image Reading facility (IRF) evaluated FDG-PET results and determined whether FDG-PET imaging should continue in all participating sites or whether FDG-PET imaging should be confined to a few sites based on data received.
The primary outcome measure of this study was progression free survival (PFS) defined by the Response Evaluation Criteria In Solid Tumors (RECIST)) 1.0 or death from any cause within thirty days of the last treatment.
(a) overall response (OR) (partial response plus complete response) as determined using RECIST 1.0 in Met positive tumors and overall; and
(c) Overall survival (time from randomization until death from any cause within 30 days of the last study treatment).
Kaplan-Meier methodology was used to estimate the median PFS for each treatment arm. The stratification factors were determined by the […] (CRF) data, not by data collected by the interactive voice […] system at the time of randomization unless the CRF data was missing. Estimation of the hazard ration (i.e., the magnitude of the treatment effect and the 95% confidence interval) was determined using a stratified Cox regression model with an indicator variable for MetMAb treatment. The same analysis methods as those described for PFS in “overall” population patients were applied to patients with met positive tumors and to patients with SCC histology. All deaths from any cause within 30 days of the last treatment were included as PFS events. Objective response was defined as a complete or partial response determined on two consecutive occasions greater than or equal to four weeks apart. Patients without a post-baseline tumor assessment were considered non-responders. An estimate of the objective response rate and 95% confidence interval (Blyth-Still-Casella) was calculated for each treatment arm. Confidence intervals for the difference in tumor response rate (Satnes and Snell 1980; Berger and Boos 1994) were calculated. For patients with an objective response, duration of objective response was defined as the time from the initial response to disease progression or death from any cause within 30 days of the last treatment. Methods for handling censoring and for analysis were the same as described for PFS. All secondary efficacy endpoints were assessed for patients with met positive tumors, patients with SCC histology and by “overall” patient population.

[4] = system: patients with second and third-line NSCLC; assay: Phase II trial of MetMAb plus erlotinib versus erlotinib plus placebo: safety, disposition and exposure
Source text: as §1, §2, §3

[5] = Met High, data cut-off Jun. 8, 2010
[6] = Met Low, data cut-off Jun. 8, 2010
[7] = Met diagnostic negative patients, MetMAb+erlotinib vs erlotinib and placebo, data cut-off Nov. 15, 2010
[8] = Met diagnostic positive patients, MetMAb plus erlotinib vs placebo+erlotinib, data cut-off Nov. 15, 2010
[9] = Met diagnostic positive patients, data cut-off Nov. 15, 2010
[10] = Met high patients, MetMAb plus erlotinib vs placebo plus erlotinib, data cut-off Jun. 8, 2010
[11] = Met high patients, data cut-off Jun. 8, 2010
[12] = Met low patients, ME vs erlotinib and placebo, data cut-off Jun. 8, 2010
[13] = Overall, data cut-off Jun. 8, 2010
[14] = overall (ITT) population, MetMAb plus erlotinib vs placebo plus erlotinib, data cut-off Jun. 8, 2010
[15] = overall (ITT) population, MetMAb plus erlotinib vs placebo plus erlotinib, data cut-off Nov. 15, 2010
[16] = Met Diagnostic-Negative, data cut-off Nov. 15, 2010
[17] = Met Diagnostic-Positive, data cut-off Nov. 15, 2010
[18] = all patients, data cut-off Jun. 8, 2010

## Nc1nc2[nH]cc(CCc3ccc(C(=O)N[C@@H](CCC(=O)O)C(=O)O)cc3)c2c(=O)[nH]1 [Pemtrexed]
NSCLC patients; NSCLC SCC, Scagliotti et al, 2008
  efficacy in SCC: relatively lower efficacy
NSCLC patients; NSCLC adenocarcinoma, Scagliotti et al, 2008
  activity in adenocarcinoma: active

## Erlotinib + MetMAb: MetMAb (15 mg/kg IV q3wks) plus erlotinib treatment, interchangeably termed ME
[1]; AREG mRNA High, MetMAb + Erlotinib vs Placebo + Erlotinib
  outcome HR: 0.77
[1]; AREG mRNA Low (median 7.11)
  outcome Median (mo): 6.5 mo
[1]; AREG mRNA Low, MetMAb + Erlotinib vs Placebo + Erlotinib
  outcome HR: 1.31
[1]; EGFR mRNA High (median 7.75)
  outcome Median (mo): 7.1 mo
[1]; EGFR mRNA High, MetMAb + Erlotinib vs Placebo + Erlotinib
  outcome HR: 1.1
[1]; EGFR mRNA Low (median 7.75)
  outcome Median (mo): 11.7 mo
[1]; EGFR mRNA Low, MetMAb + Erlotinib vs Placebo + Erlotinib
  outcome HR: 0.88
[1]; EREG mRNA High (median 0.26)
  outcome Median (mo): 10.2 mo
[1]; EREG mRNA High, MetMAb + Erlotinib vs Placebo + Erlotinib
  outcome HR: 0.67
[1]; EREG mRNA Low (median 0.26)
  outcome Median (mo): 8.1 mo
[1]; EREG mRNA Low, MetMAb + Erlotinib vs Placebo + Erlotinib
  outcome HR: 1.34
[1]; MET mRNA High (median 3.16)
  outcome Median (mo): 8.7 mo
[1]; MET mRNA High, MetMAb + Erlotinib vs Placebo + Erlotinib
  outcome HR: 0.59
[1]; MET mRNA Low (median 3.16)
  outcome Median (mo): 11.7 mo
[1]; MET mRNA Low, MetMAb + Erlotinib vs Placebo + Erlotinib
  outcome HR: 1.48
[2]
  All adverse events: Dyspnea: 7 (20.0) n (%)
  Grade 3-5 adverse events: Pneumonia: 1 (2.9) n (%)
  Patient disposition: Adverse events: 7 (10.9) n (%)
  Safety: tolerability: well-tolerated
[3]; 10% Met diagnostic positive and not Met diagnostic positive using the 50% cutoff
  overall survival treatment effect HR (unstratified Cox model): 2.83
[3]; 10% Met diagnostic positive patients (>=10% tumor cells IHC 2+ or 3+)
  overall survival treatment effect HR (unstratified Cox model): 0.52
[3]; 90% Met diagnostic positive patients
  overall survival treatment effect HR (unstratified Cox model): 0.30
[3]; [5]
  Difference in ORR, % (95% CI): 5.2 (−6.0-16.5) %
  # pts PD by RECIST: n = 17
  No. of patients with OR (%): 3 (8.6) No. of patients (%)
  Pattern of progression: PD by new lesions: 9 (52.9)
  Pattern of progression: PD on target lesions: 11 (64.7)
[3]; Met IHC status 0 and 1 patients, data cut-off Jun. 8, 2010
  PFS benefit by subgroup: did not benefit
[3]; Met IHC status 3 and 2 patients, data cut-off Jun. 8, 2010
  PFS benefit by subgroup: showed benefit
[3]; [6]
  # pts PD by RECIST: n = 15
  Pattern of progression: PD by new lesions: 7 (46.7)
  Pattern of progression: PD on target lesions: 11 (73.3)
[3]; Met diagnostic negative IHC status 0 and 1 patients, data cut-off Nov. 15, 2010
  OS benefit by subgroup: did not benefit
[3]; [7]
  OS HR: 1.78
  PFS HR: 1.82
[3]; Met diagnostic positive IHC status 3 and 2 patients, data cut-off Nov. 15, 2010
  OS benefit by subgroup: showed benefit
[3]; [8]
  OS Hazard ratio (HR): 0.37
  PFS Hazard ratio (HR): 0.53
[3]; [9]
  median OS: 12.6 months
  median PFS: 2.9 months
[3]; Met diagnostic positive using 50% cutoff
  overall survival treatment effect HR (unstratified Cox model): 0.38
[3]; Met diagnostic positive using 50% cutoff and not 90% Met diagnostic positive
  overall survival treatment effect HR (unstratified Cox model): 0.75
[3]; Met high IHC status 3 and 2 patients, data cut-off Jun. 8, 2010
  OS benefit by subgroup: showed benefit
[3]; [10]
  OS Hazard ratio (HR): 0.55
  PFS Hazard ratio (HR): 0.56
[3]; [11]
  median OS: 7.7 weeks
  median PFS: 12.4 weeks
[3]; Met high population excluding patients with known EGFR mutations, relative to placebo+erlotinib, data cut-off Jun. 8, 2010
  OS HR: 0.55
[3]; Met low IHC status 0 and 1 patients, data cut-off Jun. 8, 2010
  OS benefit by subgroup: did not benefit
[3]; [12]
  OS HR: 3.26
  PFS HR: 2.01
[3]; Met low patients, data cut-off Jun. 8, 2010
  patients progressed by the first assessment (CAT scan at week 6): ~70%
[3]; Met low patients, data cut-off Nov. 15, 2010
  patients progressed by the first assessment (CAT scan at week 6): ~70%
[3]; [13]
  Difference in ORR, % (95% CI): 1.6 (−6.3-9.4) %
  No. of patients with OR (%): 4 (6.3) No. of patients (%)
[3]; [14]
  OS HR: 1.09
  PFS HR: 1.09
[3]; [15]
  OS Hazard ratio: 0.8
  PFS Hazard ratio: 1.09
[3]; overall population, data cut-off Jun. 8, 2010
  Objective response rate: 6.3%
[4]; Met Diagnostic Negative, data cut-off Nov. 15, 2010
  Summary of safety data: Adverse events leading to death: 3 (9.7) No. of patients (%)
[4]; Met Diagnostic Positive, data cut-off Nov. 15, 2010
  Summary of safety data: Adverse events leading to death: 1 (2.9) No. of patients (%)
[4]; [16]
  Patient disposition: Death: 2 (6.5) No. of patients (%)
  Patient disposition: Disease progression: 22 (71.0) No. of patients (%)
[4]; [17]
  Patient disposition: Death: 0 No. of patients (%)
  Patient disposition: Disease progression: 18 (51.4) No. of patients (%)
[4]; [5]
  Summary of safety: AEs leading to death: 1 (2.9) n (%)
[4]; [6]
  All adverse events: Dyspnea: 4 (14.8) n (%)
  Summary of safety: AEs leading to death: 4 (14.8) n (%)
[4]; Met low, data cut-off Jun. 8, 2010
  Grade 3-5 adverse events: Pneumonia: 4 (14.8) n (%)
[4]; [18]
  Patient disposition: Deaths: 2 (3.1) n (%)
  Patient disposition: Disease progression: 34 (53.1) n (%)

## MetMAb: known recombinant, humanized, monovalent monoclonal antibody directed against c-met
[1]; EGFR-wildtype patients that were Met diagnostic positive and MET FISH negative
  OS HR: 0.45
[1]; EGFR-wildtype patients, MET FISH positive at lower threshold ≧4 copies
  outcome HR: 0.89
[4]; both Met diagnostic positive and diagnostic negative populations, data cut-off Nov. 15, 2010
  frequency of peripheral edema in MetMAb treated arms: higher

## bevacizumab: anti-VEGF antibody
NSCLC patients; in vivo
  bleeding risk: increased bleeding risk
